This note sets out measurements from patent US20120316234A1, “ANTHRAQUINONE -BASED COMPOUND, THE SYNTHESIS PROCESSES AND THE APPLICATION THEREOF” (NATIONAL DEFENSE MEDICAL CENTER, priority 2011, published 2012).

In the first data set the test system is telomerase (total cell lysates of lung cancer cell line H1299). The data set is described as follows: Telomeric repeat amplification protocol (TRAP) telomerase activity analysis. The class given is biochemical. To be noted: 100 μM of compound; telomerase source H1299 cell lysate; gel electrophoresis, SYBER Green staining. The procedure: Telomerase elongated product (CX primer: [NT]) was replicated by PCR. […] Three different concentrations of compounds were performed.
Take `COC(=O)CNCCC(=O)Nc1cccc2c1C(=O)c1cccc(NC(=O)CCNCC(=O)OC)c1C2=O` [Compound 21]: the “telomerase inhibition activity (TRAP analysis, FIG. 5)” value is listed as “have telomerase inhibition activity”.
On to `COC(=O)CNCCC(=O)Nc1ccc(NC(=O)CCNCC(=O)OC)c2c1C(=O)c1ccccc1C2=O` [Compound 10], for which the “telomerase inhibition activity (TRAP analysis, FIG. 5)” value is given as “have telomerase inhibition activity”.

Tested on in another data set: not given
Experiment: not given
Conditions: not given
On to `O=C(CCl)Nc1ccc2c(c1)C(=O)c1ccc(NC(=O)CCl)cc1C2=O`, for which the melting point (in general, the temperature, or range, at which the solid turns liquid) is 323 to 324 °C.
Same read-out and setting: the same measure for `COC(=O)CNCCC(=O)Nc1cccc2c1C(=O)c1cccc(NC(=O)CCNCC(=O)OC)c1C2=O` [Compound 21]: 150 to 151 °C.
`O=C(CCl)Nc1cccc2c1C(=O)c1cccc(NC(=O)CCl)c1C2=O` [Compound 11, 1,5-Bis(chloroacetamido)anthraquinone] returned a melting point of 349 to 350 °C.
The same measure, in the same setting: then `COC(=O)CNCCC(=O)Nc1ccc(NC(=O)CCNCC(=O)OC)c2c1C(=O)c1ccccc1C2=O` [Compound 10], with 155 to 156 °C.
